Columns and labels:
Assay type in all cases: cell-based
EdU flow cytometry = details: EdU pulse 1 hour
Method: Using EdU flow cytometry (5-ethynyl-2′-deoxyuridine) is a thymidine analogue which is incorporated into DNA during active DNA synthesis), the effects of ZNF827 depletion on cell cycle progression, especially on DNA replication, were examined.
EdU flow cytometry was performed with the Click-iT EdU flow cytometry kit (ThermoFisher Scientific) according to manufacturer's instructions. Briefly cells were pulsed with EdU for 1 hour at 37° C. and harvested by trypsinisation and centrifugation at 1000 rpm for 5 minutes. Cells were then fixed and labelled with Alex Fluor 647 with the flow cytometry kit following the manufacturer's protocol. For DNA content labelling, the fixed cells were treated with 0.5 mg of RNase (Sigma) and 25 μg of propidium iodide at 37° C. for 30 minutes. Labelled cells were analysed using the BD FACSCanto Flow Cytometer (BD Biosciences) containing lasers to excite Alexa Fluor 647 labelled EdU and propidium iodide. Between 10 000-15 000 events were collected at an approximate flow rate of 200 events/second. Data analysis was conducted using FlowJo 7.

U-2 OS cells = test: Comet assay (tail moment)
Method: Comet assays were performed using the CometAssay® kit (Trevigen) according to the manufacturer's protocol with minor modifications. Briefly, cells were counted and resuspended in PBS. 20 μl of cells at 1×10^5/mL were combined with molten LMAgarose (Trevigen) at 37° C. The cell mixture was pipetted onto the sample area of a prewarmed slide (CometSlide™, Trevigen). Slides were cooled at 4° C. in the dark for 25 minutes, and then immersed in ice-cold lysis solution (CometAssay® kit, Trevigen) at 4° C. overnight. On the following day, slides were removed from lysis solution and gently immersed in ice-cold 1× neutral electrophoresis buffer ([…]) for 30 minutes. Slides were then electrophoresed in 1× neutral electrophoresis buffer ([…]) for 45 minutes at 1 V/cm. Following electrophoresis, slides were immersed in DNA precipitation solution (1 M ammonium acetate in 95% ethanol) for 30 minutes at room temperature. Slides were then transferred and immersed in 70% ethanol for 30 minutes at room temperature. Slides were then dried for 15 minutes at 37° C., incubated with 1 μM YOYO stain (Invitrogen) for 5 minutes, and Prolong Gold Antifade (Invitrogen) and stored at 4° C. until microscope analysis.

HT1080 cells = test: Sister chromatid exchange (SCE) assay in HT1080; details: 72 hr siRNA knockdown of ZNF827, topotecan 2 μg/mL 1 hr
Method: For the SCE assay, 20-25% confluent cells were cultured in fresh media supplemented with 7.5 μM […] (BrdU) and 2.5 μM BrdC (BrdU:BrdC 3:1 ratio; Sigma-Aldrich) for 32-48 hours depending on the mitotic index of the cell line. Cell cultures were treated with 100 ng/mL colcemid for the last 4 hours of incubation to accumulate mitotic cells. Cells were harvested by trypsinisation and centrifugation, and then incubated in hypotonic buffer for 10 minutes at 37° C. Swollen cells were fixed by gradually adding 1 mL of fresh ice-cold fixative (methanol/acetic acid 3:1), mixing by inversion and incubating on ice for 5 minutes. Cells were then collected by centrifugation at 1200 rpm for 8 minutes. 10 mL ice cold fixative was added to resuspend the cells followed by 5 minutes incubation on ice and centrifugation at 1200 rpm for 8 minutes. This fixing step was repeated another two times. Fixed cells were then resuspended in 500-1000 μL of ice-cold fixative, and dropped onto clean, dry microscope slides (HDS Surefrost, 50-100 μL cell solution per slide). To drop chromosomes, a clean dry slide was held over a 75° C. water bath, and the cell solution was dropped from a pipette onto the slide, which was quickly flipped and held close to the surface of the water bath for 5 seconds. […]

## siZNF827: Stealth RNAi siRNA ZNF827HSS135819 duplex oligoribonucleotides (Invitrogen), SEQ ID NO: 12 and 13 (chain 1 GGGCAGUCUUCUGGCUGAGAAAUCA; chain 2 UGAUUUCUCAGCCAGAAGACUGCCC; listed as RNA, further chemistry not given here)
EdU flow cytometry
  cell cycle distribution (EdU): conspicuous G1 arrest and a significant reduction of S phase cells
U-2 OS cells; 72 hr siRNA knockdown alone (DMSO)
  DNA damage measured as tail moment: caused DNA damage measured as tail moment to a similar extent as topotecan treatment
U-2 OS cells; 72 hr siRNA knockdown in conjunction with topotecan 2 μg/mL 24 hr
  DNA damage measured as tail moment: further increased the amount of DNA damage
HT1080 cells
  sister chromatid exchanges (SCEs): suppression of SCEs
